According to EP4818157A1, “N-SUBSTITUTED CYCLIC AMIDE COMPOUND” (Kissei Pharmaceutical Co., Ltd., priority 2023, dated 2025):

Target: T1, TSHR (Mus musculus, UniProt P47750)
T1 construct: host or cells: mouse, in vivo (TRH- or M22-administered)
Test: not given
Conditions: TSH-releasing hormone (TRH)-administered mouse; cited from earlier work

T1 sequence (P47750 22-764): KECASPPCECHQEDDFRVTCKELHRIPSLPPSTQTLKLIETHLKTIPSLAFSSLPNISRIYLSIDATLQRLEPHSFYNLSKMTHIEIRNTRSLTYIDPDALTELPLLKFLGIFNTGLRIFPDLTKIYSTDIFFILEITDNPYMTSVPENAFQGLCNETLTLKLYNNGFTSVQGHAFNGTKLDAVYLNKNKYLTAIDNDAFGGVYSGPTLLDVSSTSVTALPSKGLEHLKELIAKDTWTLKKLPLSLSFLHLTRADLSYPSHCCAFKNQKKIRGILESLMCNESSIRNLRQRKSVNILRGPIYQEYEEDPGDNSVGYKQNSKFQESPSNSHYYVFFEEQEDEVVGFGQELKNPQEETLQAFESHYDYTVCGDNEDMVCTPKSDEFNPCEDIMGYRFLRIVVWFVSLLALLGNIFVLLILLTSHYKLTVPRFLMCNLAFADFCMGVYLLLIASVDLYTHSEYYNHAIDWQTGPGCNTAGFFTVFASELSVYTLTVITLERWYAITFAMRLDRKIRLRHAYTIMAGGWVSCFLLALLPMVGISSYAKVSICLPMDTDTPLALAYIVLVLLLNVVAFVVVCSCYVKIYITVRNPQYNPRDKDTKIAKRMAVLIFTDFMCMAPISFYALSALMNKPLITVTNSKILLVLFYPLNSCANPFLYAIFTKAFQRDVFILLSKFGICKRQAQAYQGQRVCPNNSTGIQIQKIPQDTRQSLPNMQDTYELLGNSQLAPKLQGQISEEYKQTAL

SMILES	blood T4 concentration
COc1ccc(C2Nc3ccccc3C(=O)N2Cc2ccco2)cc1COc1c(C)cc(NC(C)=O)cc1C (centres unmarked) [NCGC00242364]	lowering a blood T4 concentration

Same assay, conditions: thyroid-stimulating antibody (M22)-administered mouse; cited from earlier work

SMILES	blood T4 concentration
COc1ccc(C2Nc3ccccc3C(=O)N2Cc2ccco2)cc1COc1c(C)cc(NC(C)=O)cc1C (centres unmarked) [NCGC00242364]	lowering a blood T4 concentration

Target: T2, human TSHR (Homo sapiens, UniProt P16473)
T2 construct: expressed in transfected cells
Test: Measurement of antagonist activity using TSH-induced cAMP production in human TSHR-stably expressing CHO cells
Assay type: cell-based
Conditions: human TSH final concentration 50 ng/mL
In short: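 CHO cells stably expressing human TSHR, in HBSS/20 mM HEPES/1 mM IBMX, pre-incubated with compound 15 min at room temperature, then stimulated 1 h at 37°C with human TSH (50 ng/mL final). cAMP measured by HTRF (665/620 nm), expressed as % of control; IC50 from concentration-response.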

T2 sequence (P16473 21-764): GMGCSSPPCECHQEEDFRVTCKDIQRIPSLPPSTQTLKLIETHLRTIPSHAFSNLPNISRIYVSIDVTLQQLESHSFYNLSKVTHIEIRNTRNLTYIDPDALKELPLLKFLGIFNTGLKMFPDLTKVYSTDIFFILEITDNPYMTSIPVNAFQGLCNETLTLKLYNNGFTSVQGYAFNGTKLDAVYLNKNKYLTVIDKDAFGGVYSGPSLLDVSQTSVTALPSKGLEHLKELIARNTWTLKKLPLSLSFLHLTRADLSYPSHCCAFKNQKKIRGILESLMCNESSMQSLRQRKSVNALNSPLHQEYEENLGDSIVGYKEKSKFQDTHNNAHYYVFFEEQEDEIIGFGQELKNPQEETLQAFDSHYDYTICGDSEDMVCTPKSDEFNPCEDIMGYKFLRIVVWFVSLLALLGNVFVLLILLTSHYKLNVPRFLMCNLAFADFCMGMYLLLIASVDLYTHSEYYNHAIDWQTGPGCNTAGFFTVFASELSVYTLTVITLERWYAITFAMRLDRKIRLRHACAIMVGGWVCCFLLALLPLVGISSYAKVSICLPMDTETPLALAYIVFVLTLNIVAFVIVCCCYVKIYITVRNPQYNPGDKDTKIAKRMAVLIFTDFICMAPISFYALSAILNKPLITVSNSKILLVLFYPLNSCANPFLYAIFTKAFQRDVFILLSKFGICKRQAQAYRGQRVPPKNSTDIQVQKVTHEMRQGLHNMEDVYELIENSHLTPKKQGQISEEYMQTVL

SMILES	IC50 [µM]
CNC(=O)N[C@@H]1Cc2ccc(C(F)(F)F)cc2N(Cc2cc(C(F)F)ccc2F)C1=O [Example C-28, (R)-1-(1-(5-(difluoromethyl)-2-fluorobenzyl)-2-oxo-7-(trifluoromethyl)-1,2,3,4-tetrahydroquinolin-3-yl)-3-methylurea]	< 3
NC(=O)N[C@@H]1Cc2ccc(C(F)F)cc2N(Cc2cc(OC(F)(F)F)ccc2F)C1=O [Example C-18, (R)-1-(7-(difluoromethyl)-1-(2-fluoro-5-(trifluoromethoxy)benzyl)-2-oxo-1,2,3,4-tetrahydroquinolin-3-yl)urea]	< 3
NC(=O)Nc1ccc(CN2CCCC2)n(Cc2cc(C(F)(F)F)ccc2F)c1=O [Example E-6, 1-(1-(2-fluoro-5-(trifluoromethyl)benzyl)-2-oxo-6-(pyrrolidin-1-ylmethyl)-1,2-dihydropyridin-3-yl)urea]	< 3
N#Cc1ccc2c(c1)N(Cc1cccc(C(F)(F)F)c1)C(=O)[C@H](NC(N)=O)C2 [Example C-8, (R)-1-(7-cyano-2-oxo-1-(3-(trifluoromethyl)benzyl)-1,2,3,4-tetrahydroquinolin-3-yl)urea]	3 to 30

Now from value to compound:

IC50 [µM]	SMILES
< 3	C=CCc1ccc(F)c(CN2C(=O)[C@H](NC(N)=O)CC[C@H]2C(F)(F)F)c1 [Example D-1, 1-((3R,6S)-1-(5-allyl-2-fluorobenzyl)-2-oxo-6-(trifluoromethyl)piperidin-3-yl)urea]
< 3	NC(=O)N[C@@H]1CC[C@@H](C(F)(F)F)N(Cc2cc(CCC3CC3)ccc2F)C1=O [Example D-2, 1-((3R,6S)-1-(5-(2-cyclopropylethyl)-2-fluorobenzyl)-2-oxo-6-(trifluoromethyl)piperidin-3-yl)urea]
< 3	NC(=O)N[C@@H]1Cc2ccc(C(F)F)cc2N(Cc2cc(S(F)(F)(F)(F)F)ccc2F)C1=O [Example C-19, (R)-1-(7-(difluoromethyl)-1-(2-fluoro-5-(pentafluorosulfanyl)benzyl)-2-oxo-1,2,3,4-tetrahydroquinolin-3-yl)urea]
3 to 30	C[C@@H]1CC[C@@H](NC(N)=O)C(=O)N1Cc1cccc(Oc2ccccc2)c1 (relative stereo) [Example A-6, 1-((3R^*,6R^*)-6-methyl-2-oxo-1-(3-phenoxybenzyl)piperidin-3-yl)urea]
< 3	NC(=O)N[C@@H]1Cc2c(F)cc(F)cc2N(Cc2cc(C(F)F)ccc2F)C1=O [Example C-17, (R)-1-(1-(5-(difluoromethyl)-2-fluorobenzyl)-5,7-difluoro-2-oxo-1,2,3,4-tetrahydroquinolin-3-yl)urea]
